In experiment [1] the target is T1, human progesterone receptor A (Homo sapiens, UniProt P06401).
T1 construct: expressed in transfected cells; host or cells: SK-N-MC human neuroblastoma cells, stably transfected with pRChPR-A-neo and pMMTV-LUC
T1 sequence (P06401 1-769 isoform P06401-2): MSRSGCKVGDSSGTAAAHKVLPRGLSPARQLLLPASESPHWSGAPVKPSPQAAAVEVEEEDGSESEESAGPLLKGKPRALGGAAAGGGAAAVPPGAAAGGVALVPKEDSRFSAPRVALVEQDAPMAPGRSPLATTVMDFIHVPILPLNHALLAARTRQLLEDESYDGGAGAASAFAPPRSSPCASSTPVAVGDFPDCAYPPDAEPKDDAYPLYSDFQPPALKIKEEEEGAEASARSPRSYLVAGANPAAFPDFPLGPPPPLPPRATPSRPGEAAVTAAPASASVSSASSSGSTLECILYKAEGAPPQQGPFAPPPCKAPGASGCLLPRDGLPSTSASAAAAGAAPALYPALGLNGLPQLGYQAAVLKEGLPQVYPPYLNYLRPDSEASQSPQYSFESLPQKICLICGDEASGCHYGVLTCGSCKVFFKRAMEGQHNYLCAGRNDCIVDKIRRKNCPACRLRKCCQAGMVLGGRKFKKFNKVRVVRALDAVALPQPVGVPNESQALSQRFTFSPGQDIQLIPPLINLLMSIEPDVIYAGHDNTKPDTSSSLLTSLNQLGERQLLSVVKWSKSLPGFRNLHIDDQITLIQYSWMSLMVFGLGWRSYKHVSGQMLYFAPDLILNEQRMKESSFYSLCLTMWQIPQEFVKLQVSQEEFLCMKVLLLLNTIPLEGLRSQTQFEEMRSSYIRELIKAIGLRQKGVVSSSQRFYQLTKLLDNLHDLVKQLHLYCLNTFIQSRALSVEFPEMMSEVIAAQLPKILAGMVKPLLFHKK
Briefly: Progesterone receptor-antagonistic action in stably transfected SK-N-MC cells, MMTV-LUC reporter (PR-A). Type of experiment: cell-based. The note with it: antagonistic potency vs 0.1 nmol/l promegestone, 24 hours. The protocol: (§1) Progesterone Receptor-Antagonistic Action in Stable Transfectants of Human Neuroblastoma Cells (SK-N-MC Cells) with the Human Progesterone A or Progesterone B Receptor and an MN-LUC Reporter Construct
(§2) SK-N-MC cells (human neuroblastoma cells) which have been stably transfected with plasmids expressing the human progesterone receptor B (pRChPR-B-neo) or the human progesterone receptor A (pRChPR-A-neo) and a reporter construct (pMMTV-LUC) were incubated for 24 hours either in the absence (negative control) or in the presence of ascending amounts of the particular test compound (0.01 nmol/l, 0.1 nmol/l, 1 nmol/l, 10 nmol/l, 100 nmol/l and […]), in order to determine the agonistic efficacy. As a positive control of the reporter gene induction, the cells were treated with the synthetic gestagen promegestone (0.01 nmol/l, 0.1 nmol/l, 1 nmol/l, 10 nmol/l, 100 nmol/l and […]). To determine the antagonistic activity, the cells were treated with 0.1 nmol/l promegestone and additionally with ascending amounts of the particular test compound (0.01 nmol/l, 0.1 nmol/l, 1 nmol/l, 10 nmol/l, 100 nmol/l and […]). The activity of the reporter gene LUC (LUC=luciferase) was determined in the cell lysates and measured as RLU (relative light units). All measurements are reported as % efficacy and as EC50 and IC50 concentrations.

In experiment [2] the target is T2, human progesterone receptor B (Homo sapiens, UniProt P06401).
T2 construct: expressed in transfected cells; host or cells: SK-N-MC human neuroblastoma cells, stably transfected with pRChPR-B-neo and pMMTV-LUC
T2 sequence (P06401 1-933): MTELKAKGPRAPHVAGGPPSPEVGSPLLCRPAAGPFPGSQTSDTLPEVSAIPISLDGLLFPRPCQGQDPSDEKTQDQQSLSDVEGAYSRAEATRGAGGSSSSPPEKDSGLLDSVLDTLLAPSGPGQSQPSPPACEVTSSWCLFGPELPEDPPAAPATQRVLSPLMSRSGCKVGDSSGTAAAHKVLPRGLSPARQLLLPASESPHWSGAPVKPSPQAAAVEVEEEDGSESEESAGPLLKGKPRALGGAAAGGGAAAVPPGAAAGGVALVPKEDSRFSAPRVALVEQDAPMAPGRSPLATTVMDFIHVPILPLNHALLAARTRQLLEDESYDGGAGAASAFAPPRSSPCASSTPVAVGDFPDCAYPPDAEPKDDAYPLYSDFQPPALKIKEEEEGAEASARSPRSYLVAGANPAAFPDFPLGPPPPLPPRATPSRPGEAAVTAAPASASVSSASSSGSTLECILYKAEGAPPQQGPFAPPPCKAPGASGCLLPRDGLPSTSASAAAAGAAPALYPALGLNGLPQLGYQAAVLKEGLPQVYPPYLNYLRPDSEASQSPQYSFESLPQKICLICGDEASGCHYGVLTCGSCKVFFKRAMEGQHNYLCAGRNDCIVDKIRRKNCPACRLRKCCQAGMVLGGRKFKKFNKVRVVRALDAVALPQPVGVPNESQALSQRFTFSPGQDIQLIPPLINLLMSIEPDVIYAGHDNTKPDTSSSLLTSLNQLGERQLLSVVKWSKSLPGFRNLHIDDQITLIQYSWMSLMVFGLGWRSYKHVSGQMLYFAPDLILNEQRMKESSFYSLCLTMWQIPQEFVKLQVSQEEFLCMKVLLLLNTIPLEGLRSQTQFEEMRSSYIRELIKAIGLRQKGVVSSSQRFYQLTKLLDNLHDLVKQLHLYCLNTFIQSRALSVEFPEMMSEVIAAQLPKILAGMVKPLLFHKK
Briefly: Progesterone receptor-antagonistic action in stably transfected SK-N-MC cells, MMTV-LUC reporter (PR-B). The note with it: antagonistic potency vs 0.1 nmol/l promegestone, 24 hours. Type of experiment: cell-based. The protocol: as §1, §2

Twelve molecules from US9206219B2, “17-hydroxy-17-pentafluorethyl-estra-4,9(10)-dien-11-aryl derivatives, methods for the production thereof and the use thereof for treating diseases” (Bayer Intellectual Property GmbH, priority 2009, dated 2015) can be followed below.

Each structure is given as a SMILES string.

The IC50 is the concentration that gives 50% inhibition. A low value points to inhibition by little substance.

For the molecule `Cc1ccc(NC(=O)NCc2ccc([C@H]3C[C@@]4(C)[C@@H](CC[C@@]4(O)C(F)(F)C(F)(F)F)[C@@H]4CCC5=CC(=O)CCC5=C43)cc2)cc1` [Example 25, 1-[4-((8S,11R,13S,14S,17S)-17-hydroxy-13-methyl-3-oxo-17-pentafluoroethyl-2,3,6,7,8,11,12,13,14,15,16,17-dodecahydro-1H-cyclopenta[a]phenanthren-11-yl)benzyl]-3-p-tolylurea], the concentration for half-maximal inhibition (IC50) in experiment [1] is 0.3 nM; in experiment [2], 0.6 nM.
The like results for `C[C@]12C[C@H](c3ccc(COC(=O)Nc4ccc(N5CCCCC5)cc4)cc3)C3=C4CCC(=O)C=C4CC[C@H]3[C@@H]1CC[C@@]2(O)C(F)(F)C(F)(F)F` [Example 45, (4-piperidin-1-ylphenyl)carbamic acid 4-((8S,11R,13S,14S,17S)-17-hydroxy-13-methyl-3-oxo-17-pentafluoroethyl-2,3,6,7,8,11,12,13,14,15,16,17-dodecahydro-1H-cyclopenta[a]phenanthren-11-yl)benzyl ester] were, in that order, 0.02 nM and 0.09 nM.
For `C[C@]12C[C@H](c3ccc(CN=[N+]=[N-])cc3)C3=C4CCC(=O)C=C4CC[C@H]3[C@@H]1CC[C@@]2(O)C(F)(F)C(F)(F)F` [Example 28, (8S,11R,13S,14S,17S)-11-(4-azidomethylphenyl)-17-hydroxy-13-methyl-17-pentafluoroethyl-1,2,6,7,8,11,12,13,14,15,16,17-dodecahydrocyclopenta[a]phenanthren-3-one], in that order: 0.01 nM and 0.08 nM.
Consider `C[C@]12C[C@H](c3ccc(-c4nnn[nH]4)cc3)C3=C4CCC(=O)C=C4CC[C@H]3[C@@H]1CC[C@@]2(O)C(F)(F)C(F)(F)F` [Example 31, (8S,11R,13S,14S,17S)-17-hydroxy-13-methyl-17-pentafluoroethyl-11-[4-(1H-tetrazol-5-yl)phenyl]-1,2,6,7,8,11,12,13,14,15,16,17-dodecahydrocyclopenta[a]phenanthren-3-one], for which the 50% inhibitory concentration (IC50) in experiment [1] came out at 138 nM; in experiment [2] it was 137 nM.
The like results for `CCOC(=O)CCNC(=O)OCc1ccc([C@H]2C[C@@]3(C)[C@@H](CC[C@@]3(O)C(F)(F)C(F)(F)F)[C@@H]3CCC4=CC(=O)CCC4=C32)cc1` [Example 57, 3-[4-((8S,11R,13S,14S,17S)-17-hydroxy-13-methyl-3-oxo-17-pentafluoroethyl-2,3,6,7,8,11,12,13,14,15,16,17-dodecahydro-1H-cyclopenta[a]phenanthren-11-yl)benzyloxycarbonylamino]propionic acid ethyl ester] were, in that order, 0.1 nM and 0.1 nM.
For `C[C@]12C[C@H](c3ccc(CNC(=O)c4cccnc4)cc3)C3=C4CCC(=O)C=C4CC[C@H]3[C@@H]1CC[C@@]2(O)C(F)(F)C(F)(F)F` [Example 54, N-[4-((8S,11R,13S,14S,17S)-17-hydroxy-13-methyl-3-oxo-17-pentafluoroethyl-2,3,6,7,8,11,12,13,14,15,16,17-dodecahydro-1H-cyclopenta[a]phenanthren-11-yl)benzyl]nicotinamide], in that order: 0.3 nM and 0.1 nM.
For `CCOC(=O)CNC(=O)NCc1ccc([C@H]2C[C@@]3(C)[C@@H](CC[C@@]3(O)C(F)(F)C(F)(F)F)[C@@H]3CCC4=CC(=O)CCC4=C32)cc1` [Example 21, {3-[4-((8S,11R,13S,14S,17S)-17-hydroxy-13-methyl-3-oxo-17-pentafluoroethyl-2,3,6,7,8,11,12,13,14,15,16,17-dodecahydro-1H-cyclopenta[a]phenanthren-11-yl)benzyl]ureido}acetic acid ethyl ester], in that order: 1.2 nM and 2.4 nM.
For the molecule `CCOC(=O)c1ccc(NC(=O)NCc2ccc([C@H]3C[C@@]4(C)[C@@H](CC[C@@]4(O)C(F)(F)C(F)(F)F)[C@@H]4CCC5=CC(=O)CCC5=C43)cc2)cc1` [Example 36, 4-{3-[4-((8S,11R,13S,14S,17S)-17-hydroxy-13-methyl-3-oxo-17-pentafluoroethyl-2,3,6,7,8,11,12,13,14,15,16,17-dodecahydro-1H-cyclopenta[a]phenanthren-11-yl)benzyl]ureido}benzoic acid ethyl ester], the half-maximal inhibitory concentration (IC50) in experiment [1] turned out to be 0.7 nM; in experiment [2], 0.8 nM.
`C[C@]12C[C@H](c3ccc(CNC(=O)Nc4ccc(Cl)cc4)cc3)C3=C4CCC(=O)C=C4CC[C@H]3[C@@H]1CC[C@@]2(O)C(F)(F)C(F)(F)F` [Example 34, 1-(4-chlorophenyl)-3-[4-((8S,11R,13S,14S,17S)-17-hydroxy-13-methyl-3-oxo-17-pentafluoroethyl-2,3,6,7,8,11,12,13,14,15,16,17-dodecahydro-1H-cyclopenta[a]phenanthren-11-yl)benzyl]urea]: the IC50 in experiment [1] came out at 0.7 nM; in experiment [2], 0.8 nM.
The like results for `C[C@]12C[C@H](c3ccc(C(CO)CO)cc3)C3=C4CCC(=O)C=C4CC[C@H]3[C@@H]1CC[C@@]2(O)C(F)(F)C(F)(F)F` [Example 16, (8S,11R,13S,14S,17S)-17-hydroxy-11-[4-(2-hydroxy-1-hydroxymethylethyl)phenyl]-13-methyl-17-pentafluoroethyl-1,2,6,7,8,11,12,13,14,15,16,17-dodecahydrocyclopenta[a]phenanthren-3-one] were, in that order, 0.8 nM and 1 nM.
The like results for `C[C@]12C[C@H](c3ccc(CNC(=O)Nc4ccc(C(=O)O)cc4)cc3)C3=C4CCC(=O)C=C4CC[C@H]3[C@@H]1CC[C@@]2(O)C(F)(F)C(F)(F)F` [Example 38, 4-{3-[4-((8S,11R,13S,14S,17S)-17-hydroxy-13-methyl-3-oxo-17-pentafluoroethyl-2,3,6,7,8,11,12,13,14,15,16,17-dodecahydro-1H-cyclopenta[a]phenanthren-11-yl)benzyl]ureido}benzoic acid] were, in that order, 25 nM and 36 nM.
In the case of `CC(=O)c1cccc([C@H]2C[C@@]3(C)[C@@H](CC[C@@]3(O)C(F)(F)C(F)(F)F)[C@@H]3CCC4=CC(=O)CCC4=C32)c1` [Example 10, (8S,11R,13S,14S,17S)-11-(3-acetylphenyl)-17-hydroxy-13-methyl-17-pentafluoroethyl-1,2,6,7,8,11,12,13,14,15,16,17-dodecahydrocyclopenta[a]phenanthren-3-one], the IC50 was 5 nM in experiment [1] and 3 nM in experiment [2].
